Several values for one entry are separate records, joined by “and”; a condition that tells them apart may be missing. Identical values can stand only once.
Key:
Assay type in all cases: cell-based
Par1 (thrombin) receptor = biological target: T1, Par1 (thrombin) receptor (Homo sapiens, UniProt P25116); experiment: SFLLRN-mediated granule secretion, platelet-rich plasma, luciferin-luciferase ATP readout (primary assay); conditions: two retests of the probe; platelet-rich plasma; read-out: IC50, SFLLRN-mediated granule secretion
T1 construct: endogenous in cells; host or cells: platelets (platelet-rich plasma; washed platelets from individual donors)
T1 sequence (P25116 22-425): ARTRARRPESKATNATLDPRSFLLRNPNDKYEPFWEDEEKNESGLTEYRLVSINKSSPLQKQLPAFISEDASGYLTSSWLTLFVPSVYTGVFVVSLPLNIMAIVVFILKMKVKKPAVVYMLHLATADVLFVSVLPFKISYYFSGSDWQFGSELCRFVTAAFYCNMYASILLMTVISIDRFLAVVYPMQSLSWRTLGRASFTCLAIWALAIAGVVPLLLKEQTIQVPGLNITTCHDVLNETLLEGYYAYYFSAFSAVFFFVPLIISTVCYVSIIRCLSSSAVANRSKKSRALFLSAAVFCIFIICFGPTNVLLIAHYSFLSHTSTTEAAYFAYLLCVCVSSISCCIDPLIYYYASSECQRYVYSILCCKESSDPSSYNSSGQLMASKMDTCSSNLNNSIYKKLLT
Method: The compounds were tested in two independent IC50 determination experiments using the primary assay measuring SFLLRN-mediated granule secretion. For this assay, platelet-rich plasma is treated with putative inhibitors prior to activation by the SFLLRN peptide, which targets the Par1 (thrombin) receptor. Upon activation, platelets secrete dense granules, which are concentrated with ATP. Platelet activation and possible inhibition are monitored by a luciferin-luciferase assay (CellTiter-Glo without lysis reagent) to measure the ATP secreted from activated platelets. Luminescence measurements are made using a plate reader (Envision, PerkinElmer) capable of detecting luminescence.

PAR4 = biological target: T2, PAR4 (Homo sapiens, UniProt Q96RI0); experiment: Platelet activation induced through PAR4; conditions: FIG. 1A
T2 construct: endogenous in cells; host or cells: platelets
T2 sequence (Q96RI0 18-385): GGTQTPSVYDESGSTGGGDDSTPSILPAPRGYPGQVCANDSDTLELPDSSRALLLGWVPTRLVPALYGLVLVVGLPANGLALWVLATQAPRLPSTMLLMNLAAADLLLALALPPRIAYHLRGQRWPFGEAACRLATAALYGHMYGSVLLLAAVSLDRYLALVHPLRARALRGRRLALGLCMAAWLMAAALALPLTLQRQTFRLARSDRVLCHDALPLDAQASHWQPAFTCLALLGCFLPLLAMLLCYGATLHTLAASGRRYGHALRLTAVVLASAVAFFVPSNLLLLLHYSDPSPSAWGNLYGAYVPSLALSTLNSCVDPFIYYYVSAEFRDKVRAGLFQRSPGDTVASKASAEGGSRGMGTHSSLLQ
Method: To confirm the specificity of compound 1 for PAR1, platelets were incubated with compound 1 and subsequently activated with a variety of platelet agonists. P-selectin surface expression was monitored to detect platelet activation. […] In contrast, an IC50 for inhibition of other agonists was not reached even at concentrations >30-fold its IC50 for PAR1-mediated secretion. To further evaluate whether PAR1 is the target of compound 1, we tested the ability of the compound to inhibit Ca^2+ flux in HEK293 cells overexpressing recombinant PAR1.

PAR1 [1] = biological target: T3, PAR1 (Homo sapiens, UniProt P25116); experiment: P-selectin surface expression on washed platelets stimulated with SFLLRN (flow cytometry); parameters: endogenous in cells; host or cells: platelets (platelet-rich plasma; washed platelets from individual donors)
T3 sequence (P25116 22-425): T1 sequence (P25116 22-425)
Method: For this assay, the probe is incubated with washed platelets obtained from individual donors. Platelets are subsequently stimulated with 5 μM SFLLRN. After 15 minutes, phycoerythrin-labeled anti-P-selectin antibody (BD Biosciences) is added to the incubation mixture. Following a 20-minute incubation, a sample is analyzed by flow cytometry for staining of P-selectin.
P-selectin surface expression was monitored to detect platelet activation.

PAR1 [2] = biological target: T3, PAR1; experiment: PAR1-mediated platelet aggregation and shape change; parameters: endogenous in cells; host or cells: platelets (platelet-rich plasma; washed platelets from individual donors); conditions: FIG. 3A
Source text: This pattern of inhibition is consistent with that of an allosteric inhibitor. […] This observation raised the possibility that compound 1 blocks PAR1 signaling through Gαq (which mediates platelet aggregation downstream of PAR1), but not Gα12/13 (which mediates shape change downstream of PAR1). A previously identified PAR1 inhibitor, 3,5-difluoro aminoisoxazole (3,5-DFAI), inhibited both shape change and aggregation. Shape change that occurred in the presence of compound 1 was blocked by the Rho kinase inhibitor Y27632, confirming participation of Rho kinase downstream of Gα12/13 in compound-1-resistance shape change (FIG. 3A). […] PAR1-mediated decrease in TER in these cells is dependent on Gα12. […] In contrast, 3,5-DFAI inhibited SFLLRN-mediated decrease in TER (FIG. 3B) and compound 1 inhibited Gαq-mediated Ca^2+ flux in these MDCK cells (FIG. 3C).

IC50 (Par1 (thrombin) receptor): 4.87 µM and 5.28 µM | platelet activation through PAR4 (PAR4): without inhibiting | inhibition of the expression of P-selectin (PAR1 [1]; 1 μM compound, washed platelets, activation with 5 μM SFLLRN): 90% | IC50 (PAR1 [1]; FIG. 1A, read-out: IC50, activation mediated through PAR1 (P-selectin surface expression)): ~0.3 µM | pattern of inhibition of PAR1-mediated platelet activation (PAR1 [1]; varying concentrations of compound and SFLLRN, FIG. 2): non-competitive inhibition | PAR1-mediated platelet aggregation (PAR1 [2]): inhibited | PAR1-mediated platelet shape change (PAR1 [2]): failed to inhibit
Compound: CCCC(=O)Nc1cccc(NC(=O)c2ccccc2Br)c1 [Compound 1]
